# Experimental data: PMC10636063, “Progesterone activation of β1-containing BK channels involves two binding sites” (Nature Communications, 2023)
# Values joined by “and” are separate entries in the source; they are usually repeats but may differ in a detail not shown here. Identical values can stand only once.
# Columns and labels:
# Design in all cases: species or system mouse
# [1] = tested on: MCA branches (C57BL/6J); assay: EtOH-induced cerebrovascular constriction in vivo (cranial window); details: individual replicates; for artery diameter, normalized to time 0: Fig 8E
# Method: Eight-12 week-old male and female C57BL/6J mice were anesthetized with a mixture of xylazine/ketamine (12/100 mg per kg) and kept anesthetized for the duration of the experiment with subsequent ketamine doses (50 mg/kg of weight) as needed. A catheter was inserted into the carotid artery so that the infusion went straight to the brain rather than towards the thoracic cavity. An area of the skull was cleared of tissue and thinned to expose the branching arteries originating from the MCA on the side the catheter was inserted, above the zygomatic arch, between the ear and eye of the skull[19],[34]. The exposed arteries branching out from the MCA were monitored using a Leica MC170 HD microscope with a mounted camera (Leica M125 C) connected to a computer monitor. Drugs were diluted to their final concentration in sodium saline (0.9% NaCl) and administered via catheter at 0.1 ml/25 g of weight. Cranial window images before and after drug administration were acquired every 60 seconds for subsequent analysis.
# [2] = tested on: de-endothelialized, pressurized MCA segments (C57BL/6 male); assay: EtOH-induced constriction of pressurized MCA in vitro; details: for change in artery diameter (EtOH-induced constriction): Fig 8B, individual replicates
# Description: Eight-12 week-old C57BL/6J and KCNMB1^−/− on C57BL/6 background mice of both sexes were deeply anesthetized with isoflurane via inhalation in a tightly sealed jar. Resistance size MCAs (~100 μm in external diameter) were dissected out of the mouse brains after animal euthanasia with sharp scissors. For de-endothelialized records, the endothelium was removed by passing an air bubble into the vessel lumen for 90 s[30]. This method has been consistently used by our group and validated using endothelium-dependent versus endothelium-independent vasodilators[16],[26]. Arteries were cannulated as previously described by our group[26],[40]. MCAs were cut into 5 to 10 mm-long segments under a microscope (Nikon SMZ645). The segment was cannulated at each end, and the artery exterior was continuously perfused with physiologic sodium saline (PSS) of the following composition (mM): 119 NaCl, 4.7 KCl, 1.2 KH2PO4, 1.6 CaCl2, 1.2 MgSO4, 0.023 EDTA, 11 glucose, 24 NaHCO3, pH=7.4. PSS was continuously bubbled with an O2/CO2/N2 (21/5/74%) gas mixture and maintained at 35–37 °C. The artery external wall diameter was measured using the automatic edge-detection function of lonWizard software (lonOptix) via Sanyo VCB-3512T camera (Sanyo Electric Co.). Arteries were first incubated at an intravascular pressure of 10 mm Hg for 10 min. Then intravascular pressure was increased to 60 mmHg and held steady throughout the experiment to induce myogenic tone development and maintenance[19],[30],[51]. Each artery segment was exposed to PROG, PROG-oxime (in presence and absence of 1 µM paxilline) only once to avoid development of desensitization during repeated applications of PROG-containing solution. To determine arterial viability, arterial contractility was probed with a high KCl solution at the end of each experiment. The high KCl solution was composed of the following composition (mM): 63.7 NaCl, 60 KCl, 1.2 KH2PO4, 1.2 MgSO4, 0.023 EDTA, 11 glucose, 24 NaHCO3, 1.6 CaCl2, pH=7.4. Like PSS, the high-KCl solution was continuously bubbled with O2/CO2/N2 (21/5/74%) gas mixture and maintained at 35–37 °C.
# [3] = tested on: de-endothelialized MCA segments of KCNMB1-/- mice permeabilized with β1 constructs; assay: Cerebral artery diameter in vitro, KCNMB1-/- MCA permeabilized with β1 constructs; details: Y32V and W163I substitutions; 50 mM EtOH
# Description: Eight-12 week-old C57BL/6J and KCNMB1^−/− on C57BL/6 background mice of both sexes were deeply anesthetized with isoflurane via inhalation in a tightly sealed jar. […] For de-endothelialized records, the endothelium was removed by passing an air bubble into the vessel lumen for 90 s[30]. This method has been consistently used by our group and validated using endothelium-dependent versus endothelium-independent vasodilators[16],[26]. Arteries were cannulated as previously described by our group[26],[40]. […] PSS was continuously bubbled with an O2/CO2/N2 (21/5/74%) gas mixture and maintained at 35–37 °C. The artery external wall diameter was measured using the automatic edge-detection function of lonWizard software (lonOptix) via Sanyo VCB-3512T camera (Sanyo Electric Co.). Arteries were first incubated at an intravascular pressure of 10 mm Hg for 10 min. Then intravascular pressure was increased to 60 mmHg and held steady throughout the experiment to induce myogenic tone development and maintenance[19],[30],[51]. […] To determine arterial viability, arterial contractility was probed with a high KCl solution at the end of each experiment. […] Like PSS, the high-KCl solution was continuously bubbled with O2/CO2/N2 (21/5/74%) gas mixture and maintained at 35–37 °C. […]
structure (smiles),measurement,setting,value
"CCO [EtOH, ethanol]","artery diameter, normalized to time 0",[1]; time 0,1 (5×) and 0.9973
same,"artery diameter, normalized to time 0",[1]; time 1,1 (2×) and 0.9893 and 0.9693 and 1.069 and 0.888
same,"artery diameter, normalized to time 0",[1]; time 2,0.8687 and 0.8304 and 0.7155 and 0.777 and 1.057 and 0.6934
same,"artery diameter, normalized to time 0",[1]; time 3,0.7831 and 1 and 0.7857 and 0.8444 and 1.014 and 0.8086
same,"artery diameter, normalized to time 0",[1]; time 4,0.7004 and 0.7657 and 0.7155 and 0.7188 and 0.9449 and 0.6934
same,"artery diameter, normalized to time 0",[1]; time 5,0.6515 and 0.8304 and 0.7857 and 0.7691 and 0.9335 and 0.8086
same,"artery diameter, normalized to time 0",[1]; time 6,0.7831 and 1 and 0.8849 and 0.8691 and 0.8118 and 0.8086
same,"artery diameter, normalized to time 0",[1]; time 7,0.7397 and 0.7657 and 0.8849 and 0.7997 and 0.85 and 0.8086
same,"artery diameter, normalized to time 0",[1]; time 8,0.7004 and 1 and 0.9584 and 0.8381 and 0.823 and 0.6934
same,"artery diameter, normalized to time 0",[1]; time 9,0.6515 and 0.9469 and 0.8849 and 0.7942 and 0.8049 and 0.6934
same,"artery diameter, normalized to time 0",[1]; time 10,0.6515 and 1 and 0.8849 and 0.8075 and 0.8892 and 0.6934
same,"artery diameter, normalized to time 0",[1]; time 11,0.7831 and 1 and 0.8231 and 0.8249 and 0.8605 and 0.6934
same,"artery diameter, normalized to time 0",[1]; time 12,0.7004 and 0.9469 and 0.9893 and 0.8811 and 0.8191 and 0.888
same,"artery diameter, normalized to time 0",[1]; time 13,0.6515 and 0.8304 and 0.8849 and 0.7651 and 0.797 and 0.6934
same,"artery diameter, normalized (group comparison)",[1]; Fig 8F,0.6886 and 0.733 and 0.6331 and 0.6127 and 0.7046 and 0.7541
same,EtOH concentration close to EC100 for MCA constriction,[2],~50 mM
same,change in artery diameter (EtOH-induced constriction),[2]; EtOH 10mM,-3.481 and -2.957 and -4.155 and -5.135 and -0.8602
same,change in artery diameter (EtOH-induced constriction),[2]; EtOH 35mM,-3.0303 and -4.876 and -3.6836 and -8.271 and -6.594
same,change in artery diameter (EtOH-induced constriction),[2]; EtOH 50mM,-6.879 and -7.897 and -7.7 and -14.4262 and -10.9422
same,change in artery diameter (EtOH-induced constriction),[2]; EtOH 75mM,-7.692 and -11.3856 and -9.864 and -10.7879 and -9.705
same,constriction of MCA,[3],constriction was still observed
